According to ChEMBL document CHEMBL1201862, “PubChem BioAssay data set” (2004):
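Test compounds were applied to cells in 96-well plates for 48 hours at 5 doses. GI50: concentration for 50% inhibition of growth.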 Calls of active or inactive are those of the source. No stated cut-off is given here; in the data, active = GI50 up to about 1.1 µM and inactive = higher. Where a SMILES comes first, the peptide text is derived from it.

Tests used:
Assay in all cases: inhibition of tumour cell growth, NCI panel, 48 h
CAKI-1 = system: CAKI-1
CCRF-CEM = system: CCRF-CEM
COLO 205 = system: COLO 205
DU-145 = system: DU-145
EKVX = system: EKVX
HL-60 = system: HL-60
HOP-92 = system: HOP-92
LOX IMVI = system: LOX IMVI
MDA-MB-435 = system: MDA-MB-435
OVCAR-3 = system: OVCAR-3
OVCAR-4 = system: OVCAR-4
OVCAR-5 = system: OVCAR-5
OVCAR-8 = system: OVCAR-8
PC-3 = system: PC-3
SNB-75 = system: SNB-75
TK-10 = system: TK-10
DMS-114 = system: DMS-114
KM-20L2 = system: KM-20L2
XF498 = system: XF498
LXFL 529 = system: LXFL 529

Measured: GI50

CO/N=C1\CC(NC(=O)CNC(=O)OC(C)(C)C)c2ccsc21 (centres undefined)
inactive: CAKI-1 > 100 µM | CCRF-CEM > 100 µM | COLO 205 > 100 µM | DU-145 > 100 µM | EKVX > 100 µM | HL-60 > 100 µM | HOP-92 > 100 µM | LOX IMVI > 100 µM | MDA-MB-435 90.6 µM | OVCAR-3 > 100 µM | OVCAR-4 > 100 µM | OVCAR-5 > 100 µM | OVCAR-8 > 100 µM | PC-3 > 100 µM | SNB-75 53.1 µM | TK-10 > 100 µM

COc1nc(NC2OCC(OC(C)=O)C(OC(C)=O)C2OC(C)=O)c(/N=C(\C)C(C)=O)c(=O)n1C (centres undefined)
inactive: CAKI-1 > 100 µM | CCRF-CEM > 100 µM | COLO 205 > 100 µM | DMS-114 > 100 µM | EKVX > 100 µM | HL-60 > 100 µM | HOP-92 > 100 µM | KM-20L2 > 100 µM | LOX IMVI > 100 µM | OVCAR-4 > 100 µM | OVCAR-5 > 100 µM | OVCAR-8 > 100 µM | SNB-75 > 100 µM | TK-10 > 100 µM | XF498 > 100 µM

CN1Nc2ccccc2CC1=O
inactive: CAKI-1 > 100 µM | CCRF-CEM > 100 µM | COLO 205 > 100 µM | DMS-114 > 100 µM | EKVX > 100 µM | HOP-92 > 100 µM | KM-20L2 > 100 µM | LOX IMVI > 100 µM | OVCAR-3 > 100 µM | OVCAR-4 > 100 µM | OVCAR-5 > 100 µM | OVCAR-8 > 100 µM | SNB-75 > 100 µM | TK-10 > 100 µM | XF498 > 100 µM

Nc1nc(=O)[nH]c2c1cnn2Cc1ccccc1
inactive: CAKI-1 > 100 µM | CCRF-CEM > 100 µM | COLO 205 > 100 µM | DMS-114 > 100 µM | EKVX > 100 µM | HL-60 > 100 µM | HOP-92 > 100 µM | KM-20L2 1.62 µM | LOX IMVI > 100 µM | LXFL 529 > 100 µM | OVCAR-4 > 100 µM | OVCAR-5 1.47 µM | OVCAR-8 > 100 µM | SNB-75 > 100 µM | TK-10 1.35 µM | XF498 > 100 µM

N#CCCN(CCC#N)c1ccc(/C=C(\NC(=O)c2cc([N+](=O)[O-])ccc2Cl)C(=O)Nc2ccccc2)cc1
inactive: CAKI-1 62.1 µM | CCRF-CEM 5.87 µM | COLO 205 67.9 µM | DMS-114 55 µM | EKVX > 100 µM | HOP-92 > 100 µM | KM-20L2 > 100 µM | LOX IMVI 21.4 µM | LXFL 529 10.5 µM | OVCAR-3 > 100 µM | OVCAR-4 > 100 µM | OVCAR-5 99.8 µM | OVCAR-8 83.9 µM | TK-10 48 µM | XF498 > 100 µM

Cc1cc(O)nc(NN2C(Cl)C(=O)C2c2ccc([N+](=O)[O-])cc2)n1 (centres undefined)
inactive: CCRF-CEM 2.15 µM | COLO 205 18.6 µM | DMS-114 8.07 µM | EKVX 23 µM | HL-60 4.12 µM | HOP-92 13.7 µM | KM-20L2 17.1 µM | LOX IMVI 5.96 µM | LXFL 529 7.67 µM | OVCAR-3 6.53 µM | OVCAR-4 13.7 µM | OVCAR-5 25.1 µM | OVCAR-8 17.8 µM | SNB-75 2.58 µM | TK-10 15.8 µM

CCOc1ccc(/C=C2\N=C(c3ccccc3)OC2=O)cc1
inactive: CCRF-CEM > 100 µM | EKVX > 100 µM | HL-60 > 100 µM | HOP-92 > 100 µM | MDA-MB-435 > 100 µM | OVCAR-3 > 100 µM | OVCAR-4 > 100 µM | OVCAR-5 > 100 µM | OVCAR-8 > 100 µM | PC-3 > 100 µM | SNB-75 83 µM | TK-10 > 100 µM

NCCCCC(N)C(=O)N1CCN(c2nc(N3CCCC3)c3nc(Cl)c(NCc4ccccc4)nc3n2)CC1 (centres undefined)
inactive: CAKI-1 31 µM | CCRF-CEM 15.5 µM | COLO 205 17.4 µM | DU-145 16.9 µM | EKVX 18.7 µM | HL-60 17 µM | HOP-92 10.3 µM | LOX IMVI 17.5 µM | MDA-MB-435 23.2 µM | OVCAR-3 18.9 µM | OVCAR-4 23.2 µM | OVCAR-5 19.1 µM | OVCAR-8 14 µM | PC-3 17.8 µM | SNB-75 16.6 µM | TK-10 19.2 µM

O=C1/C(=C/c2cccc(Br)c2)Cc2ccccc21
inactive: CAKI-1 75.7 µM | CCRF-CEM 58.7 µM | COLO 205 32.1 µM | DU-145 53.8 µM | EKVX 27.7 µM | HL-60 68.7 µM | HOP-92 24.8 µM | LOX IMVI 45.1 µM | MDA-MB-435 80 µM | OVCAR-3 41.6 µM | OVCAR-4 38.9 µM | OVCAR-5 > 100 µM | OVCAR-8 78.9 µM | PC-3 29.9 µM | SNB-75 > 100 µM | TK-10 63.5 µM

COC1OCC(O)C(NC(=O)N(C)N=O)C1O (centres undefined)
inactive: CAKI-1 > 100 µM | CCRF-CEM > 100 µM | COLO 205 > 100 µM | DMS-114 > 100 µM | EKVX > 100 µM | HOP-92 > 100 µM | KM-20L2 > 100 µM | LOX IMVI > 100 µM | OVCAR-3 > 100 µM | OVCAR-4 > 100 µM | OVCAR-5 > 100 µM | OVCAR-8 > 100 µM | SNB-75 > 100 µM | XF498 > 100 µM

NC(=O)C1CCCN1C(=O)C(N)Cc1ccccc1 (stereo not drawn) (H-Phe-Pro-NH2; configuration not given here)
inactive: CAKI-1 > 100 µM | CCRF-CEM > 100 µM | COLO 205 > 100 µM | DU-145 > 100 µM | EKVX > 100 µM | HL-60 > 100 µM | LOX IMVI > 100 µM | MDA-MB-435 > 100 µM | OVCAR-3 > 100 µM | OVCAR-4 > 100 µM | OVCAR-5 > 100 µM | OVCAR-8 > 100 µM | PC-3 > 100 µM | TK-10 > 100 µM
